# Measured values from patent US5945451A, “Fluorobutenyl(thio)ethers used as pesticides” (Bayer Aktiengesellschaft, priority 1994, dated 1999).
# How the values were obtained:
# Meloidogyne incognita = assay: Critical concentration test/nematodes; type: in vivo; settings: 20 ppm in soil; lettuce root galls after three weeks
# Procedure: Critical concentration test/nematodes
# Test nematode: Meloidogyne incognita
# Solvent: 3 parts by weight of acetone
# (§1) Emulsifier: 1 part by weight of alkylaryl polyglycol ether
# To produce a suitable preparation of active compound, 1 part by weight of active compound is mixed with the stated amount of solvent, the stated amount of emulsifier is added and the concentrate is diluted with water to the desired concentration.
# The preparation of active compound is intimately mixed with soil which is severely infested with the test nematodes. The concentration of the active compound in the preparation is of practically no importance, only the amount of active compound per unit volume of soil, which is given in ppm (=mg/l), being decisive. The treated soil is transferred into pots, lettuce is sown in, and the pots are kept at a greenhouse temperature of 25° C.
# After three weeks, the lettuce roots are checked for infestation with nematodes (root galls) and the degree of efficacy of the active compound in % is determined. The degree of efficacy is 100% when infestation is avoided completely and 0% when the infestation level is just as high as in the control plants in untreated, but equally infested, soil.
# Lucilia cuprina larvae = assay: Blowfly larvae test; type: in vivo; settings: after 24 hours, horse meat, read-out: destruction
# Procedure: Test animals: Lucilia cuprina larvae
# Solvent: 35 parts by weight of ethylene glycol monomethyl ether
# Emulsifier: 35 parts by weight of nonylphenol polyglycol ether
# For the purpose of producing a suitable formulation, 3 parts by weight of the active compound are mixed with 7 parts of the abovementioned mixture of solvent and emulsifier, and the emulsion concentrate thus obtained is diluted with water to the particular concentration desired.
# About 20 Lucilia cuprina larvae are introduced into a test tube which contains approx. 1 cm^3 of horse meat and 0.5 ml of the preparation of active compound to be tested. After 24 hours, the efficacy of the preparation of active compound is determined. 100% means that all blowfly larvae have been killed; 0% means that none of the blowfly larvae have been killed.
# [1] = test system: tobacco budworm (Heliothis virescens); assay: whole plant or invertebrate; type: in vivo; settings: 168 h, read-out: destruction
# Procedure: (§2) Solvent: 7 parts by weight of dimethylformamide
# as §1
# (§3) To produce a suitable preparation of active compound, 1 part by weight of active compound is mixed with the stated amount of solvent and the stated amount of emulsifier, and the concentrate is diluted with water to the desired concentration.
# Soya bean shoots (Glycine max) are treated by being dipped into the preparation of active compound of the desired concentration and are infested with tobacco budworm (Heliothis virescens) while the leaves are still moist.
# (§4) After the desired period of time, the destruction in % is determined. 100% means that all the caterpillars have been killed; 0% means that none of the caterpillars have been killed.
# [2] = test system: mustard beetle larvae (Phaedon cochleariae); assay: Phaedon larvae test; type: in vivo; settings: 168 h, after 7 days, dipped cabbage leaves, read-out: destruction
# Procedure: as §2, §1, §3
# After the desired period of time, the destruction in % is determined. 100% means that all the beetle larvae have been killed; 0% means that none of the beetle larvae have been killed.
# [3] = test system: caterpillars of the diamond-back moth (Plutella maculipennis); assay: Plutella test; type: in vivo; settings: 168 h, after 7 days, dipped cabbage leaves, read-out: destruction
# Procedure: as §2, §1, §3
# Cabbage leaves (Brassica oleracea) are treated by being dipped into the preparation of active compound of the desired concentration and are infested with caterpillars of the diamond-back moth (Plutella maculipennis) while the leaves are still moist.
# as §4
# [4] = test system: larvae of the green rice leafhopper (Nephotettix cincticeps); assay: Nephotettix test; type: in vivo; settings: 144 h, read-out: destruction
# Procedure: as §2, §1, §3
# Rice seedlings (Oryzae sativa) are treated by being dipped into the preparation of active compound of the desired concentration and are infested with larvae of the green rice leafhopper (Nephotettix cincticeps) while the seedlings are still moist.
# After the desired period of time, the destruction in % is determined. 100% means that all the leafhoppers have been killed; 0% means that none of the leafhoppers have been killed.
# [5] = log p, octanol/water partition coefficient determined by reversed-phase HPLC; type: physicochemical; settings: for chromatographic logP: pH not stated; for chromatographic logD: pH 2
# From the text: * log p = Logarithm of the partition coefficient p of the substance
# between the solvents octanol and water, determined experimentally by mean
smiles,measurement,setting,value
O=C(CSCCC(F)=C(F)F)OCc1ccccc1 [Example I-2],degree of efficacy,Meloidogyne incognita,100%
CN(C)C(=O)CSCCC(F)=C(F)F [Example I-9],mortality at 1000 ppm,Lucilia cuprina larvae,100%
O=C(CSCCC(F)=C(F)F)Nc1ccc(F)cc1 [Example I-10],mortality at 0.1 %,[1],85%
O=C(CSCCC(F)=C(F)F)Nc1ccccn1 [Example I-11],degree of efficacy,Meloidogyne incognita,100%
CC(C)N(C(=O)CSCCC(F)=C(F)F)c1ccc(Cl)c(Cl)c1 [Example I-13],mortality at 0.1 %,[2],100%
same,mortality at 0.1 %,[3],100%
CC(C)N(C(=O)CSCCC(F)=C(F)F)c1cccc(F)c1 [Example I-14],mortality at 0.1 %,[3],100%
same,mortality at 0.1 %,[4],100%
O=C(O)CNC(=O)CSCCC(F)=C(F)F [Example I-15],degree of efficacy,Meloidogyne incognita,100%
CC(NC(=O)CSCCC(F)=C(F)F)C(=O)O (stereo not drawn) [Example I-16],degree of efficacy,Meloidogyne incognita,100%
O=C(CSCCC(F)=C(F)F)NC(Cc1ccccc1)C(=O)O (stereo not drawn) [Example I-17],degree of efficacy,Meloidogyne incognita,100%
CC(NC(=O)CSCCC(F)=C(F)F)c1ccccc1 (stereo not drawn) [Example I-18],chromatographic logP,[5],2.77
O=C(CSCCC(F)=C(F)F)NCc1ccc(Cl)cc1 [Example I-19],chromatographic logP,[5],2.94
COC(=O)CSCCC(F)=C(F)F [Example I-20],chromatographic logP,[5],2.43
CC(C)COC(=O)CSCCC(F)=C(F)F [Example I-21],chromatographic logP,[5],3.74
NC(=O)CSCCC(F)=C(F)F [Example I-22],chromatographic logD,[5],1.22
O=C(CSCCC(F)=C(F)F)NCc1ccccc1 [Example I-23],chromatographic logD,[5],2.56
O=C(Nc1ccc(Cl)c(Cl)c1)C(SCCC(F)=C(F)F)c1ccccc1 (stereo not drawn) [Example I-46],chromatographic logD,[5],4.59
